Test results: PMC4340712, “Delineating the Biosynthesis of Gentamicin X2, the Common Precursor of the Gentamicin C Antibiotic Complex” (Chemistry & Biology, 2015)

Legend:
[1] = target: T1, GenS2 (Micromonospora echinospora, UniProt Q70KD4); assay: LC-ESI-HRMS of […]″-deamination; format: biochemical; conditions: 2-oxoglutarate 1 mM as amino acceptor, Tris-HCl pH 7.5, 30°C; reverse reaction; GenS2 alone
T1 construct: gene gtmD; full length, N-terminal His6 tag (pET28a), initiator Met lost, tag kept; E. coli BL21(DE3)

[2] = target: T2, GenD2 (Micromonospora echinospora, UniProt Q70KD1); assay: coupled reverse reaction from kanamycin B, LC-ESI-HRMS; format: biochemical; conditions: NADH or NADPH 2.5 mM; ketone generated in situ by GenS2 with 2-oxoglutarate; Tris-HCl pH 7.5, 30°C
T2 construct: gene gtmC; full length, N-terminal His6 tag (pET28a), initiator Met lost, tag kept; E. coli BL21(DE3); 38,533 Da (calc. 38,539)

[3] = substrate: NC[C@H]1O[C@H](O[C@H]2[C@H](O)[C@@H](O[C@H]3O[C@H](CO)[C@@H](O)[C@H](N)[C@H]3O)[C@H](N)C[C@@H]2N)[C@H](N)[C@@H](O)[C@@H]1O; assay: SAM-dependent N-methylation kinetics (details in supplement); format: biochemical, Micromonospora echinospora; conditions: co-substrate SAM; 3″-N-methylation

T1 sequence (Q70KD4 2-418): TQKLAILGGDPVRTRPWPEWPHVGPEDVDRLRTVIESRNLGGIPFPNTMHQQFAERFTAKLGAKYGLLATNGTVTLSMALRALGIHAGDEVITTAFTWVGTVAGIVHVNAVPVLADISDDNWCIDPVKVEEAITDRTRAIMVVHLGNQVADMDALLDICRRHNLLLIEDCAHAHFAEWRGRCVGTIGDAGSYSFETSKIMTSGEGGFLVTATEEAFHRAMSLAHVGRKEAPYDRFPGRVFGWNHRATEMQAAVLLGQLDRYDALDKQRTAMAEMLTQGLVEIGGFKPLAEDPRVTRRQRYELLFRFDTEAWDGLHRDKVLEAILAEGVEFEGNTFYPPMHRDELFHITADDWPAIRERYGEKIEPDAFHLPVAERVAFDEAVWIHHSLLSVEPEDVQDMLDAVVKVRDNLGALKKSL
T2 sequence (Q70KD1 entry or part of it): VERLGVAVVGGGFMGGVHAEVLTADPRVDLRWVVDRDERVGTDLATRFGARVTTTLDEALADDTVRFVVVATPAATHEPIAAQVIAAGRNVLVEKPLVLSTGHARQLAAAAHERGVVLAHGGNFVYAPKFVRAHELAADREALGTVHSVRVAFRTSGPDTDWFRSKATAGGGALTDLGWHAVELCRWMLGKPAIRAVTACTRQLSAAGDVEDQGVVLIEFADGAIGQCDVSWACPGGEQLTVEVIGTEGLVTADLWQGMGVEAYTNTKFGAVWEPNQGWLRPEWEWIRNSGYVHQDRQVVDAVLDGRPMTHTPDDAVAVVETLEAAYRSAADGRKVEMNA

In the case of `NC[C@H]1O[C@H](O[C@H]2[C@H](O)[C@@H](O[C@H]3O[C@H](CO)[C@@H](O)[C@H](N)[C@H]3O)[C@H](N)C[C@@H]2N)[C@H](N)[C@@H](O)[C@@H]1O` [compound 11, kanamycin B], the “LC-ESI-HRMS of 3′′-deamination” value [1] is reported as “LC-ESI-HRMS analysis showed that GenS2 catalyzed low-level deamination of both compounds”.

`NC[C@H]1O[C@H](O[C@H]2[C@H](O)[C@@H](O[C@H]3O[C@H](CO)[C@@H](O)[C@H](N)[C@H]3O)[C@H](N)C[C@@H]2N)[C@H](N)C[C@@H]1O` [compound 12, tobramycin] was tested, and the “LC-ESI-HRMS of 3′′-deamination” value [1] was “LC-ESI-HRMS analysis showed that GenS2 catalyzed low-level deamination of both compounds”.

With `NC[C@H]1O[C@H](O[C@H]2[C@H](O)[C@@H](O[C@H]3O[C@H](CO)[C@@H](O)C(=O)[C@H]3O)[C@H](N)C[C@@H]2N)[C@H](N)[C@@H](O)[C@@H]1O` [compound 13, 3″-deamino-3″-oxo-kanamycin B] the “coupled reverse reaction from kanamycin B, LC-ESI-HRMS” value [2] was “in the presence of GenS2 and GenD2 (and either NADH or NADPH) essentially quantitative yields”.

B1: GenN (Micromonospora echinospora) (protein)
chain: IVGGSTIQPERVDAAALRQLGDAMRKVVGSADPTPLADLLSGTPVDPDELTREVGADGRQALLDSGMAVDDGTTFSSPLRGHQLHGVVVLSDPDVEEEVQHRWYVDPLWEADLLIRLMLRRGGARALDMGCGSGVLSLVLADRYESVLGVDVNPRAVALSRLNAALNGLTNVTFREGDMFEPAEGRFSRIVFNSPTNEEGNEFVDLLEAGEPILETFFRNVPRKLESGGIVEVNLAMNDYPGDPFRERLADWLGLTENGLRVQIFTSQRRATESGGEWKRGWLVVAPGPVGLTEVEWPYHDRYEEDPDALLDGTDRLLRG
notes: full length, N-terminal His6 tag (pET28a), initiator Met lost, tag kept; E. coli BL21(DE3)
B1 gave a Km [3] of 34 ± 3.8 µM and a kcat [3] of 1.93 ± 0.1 s⁻¹.
